Test system: Radical scavenging activity
Assay: Antioxidant activity assessed as DPPH radical scavenging activity after 30 mins
Format: functional

Compound | IC50 [µM]
O=C(/C=C/c1ccccc1)O[C@@H]1[C@@H](O)[C@H](O)[C@@H](CO)O[C@H]1c1c(O)cc2oc3cc(O)c(O)cc3c(=O)c2c1O | 31.4
O=C(O[C@@H]1[C@@H](O)[C@H](O)[C@@H](CO)O[C@H]1c1c(O)cc2oc3cc(O)c(O)cc3c(=O)c2c1O)c1ccccc1 | 32.7
O=C(/C=C/c1ccc(O)cc1)O[C@@H]1[C@@H](O)[C@H](O)[C@@H](CO)O[C@H]1c1c(O)cc2oc3cc(O)c(O)cc3c(=O)c2c1O | 25.4
O=C(/C=C/c1ccc(O)c(O)c1)O[C@@H]1[C@@H](O)[C@H](O)[C@@H](CO)O[C@H]1c1c(O)cc2oc3cc(O)c(O)cc3c(=O)c2c1O | 17.8
O=c1c2cc(O)c(O)cc2oc2cc(O)c([C@@H]3O[C@H](CO)[C@@H](O)[C@H](O)[C@H]3O)c(O)c12 [MANGIFERIN] | 35
O=C(O[C@@H]1[C@@H](O)[C@H](O)[C@@H](CO)O[C@H]1c1c(O)cc2oc3cc(O)c(O)cc3c(=O)c2c1O)c1ccc(O)cc1 [MURAXANTHONE] | 30.7
C[C@@H]1O[C@@H](OC[C@H]2O[C@@H](Oc3c(-c4ccc(O)c(O)c4)oc4cc(O)cc(O)c4c3=O)[C@H](O)[C@@H](O)[C@@H]2O)[C@H](O)[C@H](O)[C@H]1O [RUTIN] | 12.3

— ChEMBL document CHEMBL1147239, “New antioxidant C-glucosylxanthones from the stems of Arrabidaea samydoides” (J Nat Prod, 2003)
